How the values were obtained:
[1] = test system: human sperm; experiment: Sperm chemotaxis assay with phage displaying the peptide (two-chamber apparatus); format: cell-based; settings: 37° C. for 1 hr; for sperm count in the lower chamber: one experiment done in triplicate, phage displaying peptide
Protocol: (§1) Preparation of sperm: One tube (0.5 ml) of a sperm sample was thawed at room temperature for 15-20 mm. As soon as the sperm was thawed, 0.5 ml of Hams-F10 medium was added, and the sample transferred to a 5 ml culture tube. The sperm was diluted to 4 ml with Hams-F10 medium, mixed well, and centrifuged at 2000 rpm for 5 mm. The supernatant was decanted and the cells resuspended in 4 ml of fresh Hams-F 10 medium. The centrifugation was repeated and the clean sperm pellet resuspended in 1 ml Hams-F10 medium. A 50 μl sample aliquot was used per each assay condition.
Assay: The chambers of the assay apparatus were assembled with 8.iM membranes pre-wetted with Hams-F10 medium. A sample of phage containing a specific peptide sequence or a control peptide sequence was diluted with Hams-F10 medium to give a 100 ml phage containing solution which was placed in the bottom chamber of the apparatus. A sperm sample having at least 1×10^6 sperm was added to the upper chamber. After incubation 37° C. for 1 hr, the sample in the bottom chamber was collected into microfuge tubes and centrifuged at 6000 rpm for 5 mm. The supernatant was removed and the pellet resuspended in suitable volume to be counted in a hemocytometer.
Results: Various concentrations of phage containing the Husap peptide (TMGFTAPRFPHY; SEQ. ID. NO. 1), phage containing a control sequence (KSLSRHDHIHHH; SEQ. ID. NO. 20) or buffer without phage were used in the assays. Sperm counts 2-15 fold greater in the well containing the Husap peptide displaying phage were consistently obtained when compared to control phage or buffer-alone chambers. For example, in one experiment done in triplicate, the sperm count in the lower chamber was 76×10^4 for the Husap peptide compared to 5×10^4 for the control peptide and 21×10^4 for buffer alone.

[2] = test system: human sperm; experiment: Effect of varying concentrations of Husap peptide on chemotaxis of human sperm; format: cell-based; settings: 2.8×10^6 sperm in upper chamber, 5 micron membrane, 37° C. 1 h
Protocol: as §1
The effect of varying concentrations of the Husap peptide on chemotaxis of human sperm was also determined. Sperm at a concentration of 2.8×10^6 were added to the upper chamber. The peptide concentration in the lower chamber was varied from 0 μl to […] of peptide. Sperm were separated from the lower chamber by a 5 micron membrane filter. The chambers were incubated at 37° C. for 1 h. At the end of the incubation, sperm were collected from the lower chamber and counted in a hemocytometer. The experiment was performed several times with varying peptide concentrations and with 5 and 8 micron membranes.

| Substance | sperm count in the lower chamber [1] | Sperm counts, fold greater compared to control phage or buffer-alone chambers ([1]; phage displaying peptide in bottom chamber, various phage concentrations) | Sperm Count in Lower Chamber ([2]; HusaP concentration 10 uM) | Sperm Count in Lower Chamber ([2]; HusaP concentration 20 uM) | Sperm Count in Lower Chamber ([2]; HusaP concentration 100 uM) |
| --- | --- | --- | --- | --- | --- |
| NH2-Thr-Met-Gly-Phe-Thr-Ala-Pro-Arg-Phe-Pro-His-Tyr-COOH (H-TMGFTAPRFPHY-OH; listed as Homo sapiens) [Husap peptide, human sperm chemotactic peptide …] | 76×10^4 | 2-15 fold | 6 × 10^4 | 12 × 10^4 | 52 × 10^4 |
| KSLSRHDHIHHH [control peptide, reference compound] | 5×10^4 | – | – | – | – |

Source: US20030092077A1, “Human sperm activator peptides” (priority 2001, published 2003)
